Experimental data taken from US11300567B2, “Methods and compositions for protein purification and enzyme reaction” (THE REGENTS OF THE UNIVERSITY OF CALIFORNIA, priority 2015, dated 2022).
“Also recorded” adds a separate entry of the source.

Columns and labels:
Type in all cases: biochemical
[1] = Alkaline phosphatase VFD vs batch enhancement, incl. steric crowding (Example 1); conditions: VFD 10 minutes
Experimental: In a typical experiment, fast thermosensitive alkaline phosphatase (1 μL, 1 unit, Thermo-Fisher) was added to 10 mL of diethanolamine buffer (1.0 M diethanolamine buffer with 0.50 mM magnesium chloride at pH 9.8 at 25° C.) in creating an enzyme stock solution. This solution was stored on ice and not stored for more than two hours. p-nitrophenyl phosphate liquid substrate solution (500 μL, Sigma-Aldrich) was added to a 20 mm external diameter VFD tube. To this was added alkaline phosphatase enzyme solution (800 μL) and the tube was inserted into the VFD and immediately spun to the required rotational speed. The VFD tube was rotated about its axis for 10 minutes at a 45-degree tilt angle relative to the horizontal position. At the end of this time 4 M NaOH (150 μL) was added in quenching the reaction. The sample was then added to a 96-well reader plate and the absorbance read at 401 nm (being the λmax for this system with 150 μL NaOH quench). […] From a comparison of the absorption values of the VFD vs. batch an enhancement factor can be determined (FIGS. 3A-3N).
For the steric crowding studies the following method was performed. […] The sample was then added to a 96-well reader plate and the absorbance read at 401 nm (being the λmax for this system with 150 μL NaOH quench). […] From a comparison of the absorption values of the VFD vs. batch an enhancement factor can be determined (FIGS. 3A-3N).

[2] = Michaelis-Menton initial rates experiments, batch vs VFD (Table 1); conditions: Batch (non-VFD)
Experimental: In determining if the observed acceleration is due to a kinetic or thermodynamic effect, the initial rates of each reaction were explored. All five enzymes were subjected typical kinetic experiments using the Michaelis-Menton model. The intrinsic values of the enzymes in a batch type and VFD system could be ascertained (Table 1).
To a 17.7 mm internal diameter VFD tube was added the substrate and enzyme in buffer at the appropriate concentration. The VFD tube was rotated about its axis at a specific rotational speed at an inclination angle of 45-degrees. After a set amount of time had elapsed, the rotation was immediately halted and the quenching reagent added. The exact same reaction was run alongside the VFD in mimicking a non-VFD process. From both the VFD processed and non-VFD processed sample an aliquot of 0.100 mL was removed and added to a 96 well plate and read at 405 nm to detect the production of p-nitrophenoxide. These measurements were carried out in triplicate and allow an accurate comparison to be drawn between VFD and non-VFD processing. For all alterations to this general protocol, assay and further experimental design, see supporting information.

[3] = Alkaline phosphatase VFD acceleration, crowding and centrifuge control (Example 4)
Experimental: The enzyme-substrate solution (alkaline phosphatase and p-nitrophenol phosphate) was subjected to centrifugation in a bench top centrifuge at the indicated rotational speeds for 10 min. A direct comparison was then made between a VFD sample and a centrifuged sample (FIG. 12).
FAsTAP™ thermosensitive alkaline phosphatase (1.0 μL, 0.11 mM) was added to 10 mL of the diethanolamine buffer to generate an enzyme stock solution (11.1 nM). This solution was made fresh every two hours and stored on ice. Each sample was prepared by combining 0.800 mL of the enzyme stock solution and 0.500 mL of alkaline phosphatase liquid substrate system (pNPP, Sigma-Aldrich, 0.435 mM); this solution (1.3 mL) was added to either an Eppendorf or VFD sample tube. The reaction was incubated at 25° C. for 10 min unless otherwise indicated. […] The sample (100 μL) was then transferred to a 96-well micro plate reader, and the absorbance measured at 402 nm (λmax). […]
To explore the ability of VFD-mediated processing to overcome steric crowding reagents, two PEG polymers with average MW of 3350 and 8000 g/mol were added to the alkaline phosphatase-substrate solutions as follows. The appropriate quantities of PEG reagent for the indicated final concentrations were dissolved in diethanolamine buffer (total volume of 10.0 mL). […] The absorbance of the solution was then measured at 402 nm (FIG. 23).

[4] = Immobilized alkaline phosphatase reactor: continuous flow stability; conditions: amine-glutaraldehyde cross linker, 10 h, 1 mL min^−1
Experimental: FIG. 64 depicts amine-glutaraldehyde cross-linker immobilization. Glutaraldehyde solution (90 μL in 3.00 mL PBS) was added to a freshly coated sample tube. The sample tube was then capped, and inserted into a VFD. The sample tube was rotated at 8 krpm for 30 min to create the APTES-glutaraldehyde cross linker. After rotation, the sample tube was then rinsed with PBS (6×5 mL) and inverted to remove the majority of the buffer solution. The enzyme immobilization step was then carried out as described above. Following this, the sample tube was removed from the VFD and washed with PBS (5×5 mL, pH 8.0), and inverted to remove the majority of the buffer solution. The sample tube was then loaded back into the VFD before addition of NaBH3CN (18.8 mg) in sodium acetate buffer (50 mM, pH 5.0, 3.00 mL). The sample tube was then capped and rotated at 8 krpm for 30 min. […]
The p-nitrophenol phosphate substrate solution (0.01 M in 1.0 M diethanolamine) was prepared as follows: […] of diethanolamine was added to 1.0 L of H2O, then the pH of the solution was adjusted to pH 9.8 using 5 M HCl. […] The aliquot was then analyzed via absorption spectroscopy as described above. […]

- enhancement compared to a non-VFD sample, crowded solution ([1]; 6 mg/mL PEG8000 dopant, 45-degree tilt): ~12 ×
- enhancement in activity compared to a non-VFD sample ([1]; 45-degree tilt angle): ~6 ×
- enhancement of VFD-processed enzyme in high concentration of PEG 8000 ([3]; PEG 8000 (6.00 mg/ml, 0.75 M)): ≈ 9 fold
Substance: alkaline phosphatase
- Km [2]: 484 µM
- Vmax (Mol/sec) Batch [2]: 2.271e-08 mol/s
- kcat (sec^−1) Batch [2]: 1 s⁻¹
- effect of centrifugation on enzymatic activity (control) ([3]; centrifuged at 14 krpm (17530 g), no VFD): no increase in enzymatic activity
- stability of immobilized enzyme in continuous flow [4]: stable levels of substrate conversion for 10 h; also recorded: good stability over 10 h of processing
